Experimental data taken from patent US8507528B2, “2-alkyl-indazole compounds for the treatment of certain cns-related disorders” (Aziende Chimiche Riunite Angelini Francesco A.C.R.A.F. …, priority 2006, dated 2013).
pKi: −log10 of the molar value. Counter-ions that a name gives are not always drawn. Like-named read-outs stand apart in the source and are kept apart here.

Experiments:
[1] = target: T1, human serotonin 5-HT2A receptor (Homo sapiens, UniProt P28223); experiment: Test B: binding to the human serotonin 5-HT2A receptor; conditions: human recombinant cells, six concentrations; read-out: (h)5-HT2a (pKi) (converted)
T1 construct: expressed in transfected cells
T1 sequence (P28223 whole entry): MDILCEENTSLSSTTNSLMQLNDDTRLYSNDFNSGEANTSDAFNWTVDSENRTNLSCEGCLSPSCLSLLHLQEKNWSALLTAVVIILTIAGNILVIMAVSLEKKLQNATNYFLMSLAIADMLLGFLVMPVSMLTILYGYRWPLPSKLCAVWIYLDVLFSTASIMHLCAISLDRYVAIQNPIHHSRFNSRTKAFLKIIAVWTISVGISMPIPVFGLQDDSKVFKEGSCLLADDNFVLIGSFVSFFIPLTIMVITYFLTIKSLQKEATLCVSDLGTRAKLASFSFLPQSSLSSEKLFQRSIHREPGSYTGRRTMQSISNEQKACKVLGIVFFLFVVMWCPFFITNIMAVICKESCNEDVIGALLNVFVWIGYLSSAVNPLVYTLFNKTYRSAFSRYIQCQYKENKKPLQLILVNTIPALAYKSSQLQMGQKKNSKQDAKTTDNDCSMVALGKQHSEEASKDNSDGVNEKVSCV
Source text: (§1) These tests measured the percentage inhibition induced by the compounds of formula (I) according to the present invention at six different concentrations, from which the pKi values of the compounds in relation to the individual receptors were obtained.
Binding to the human serotonin 5-HT2A receptor was effected by the standard methodology described in Bonhaus D. W., Bach C., De Souza A., Salazar F. H., Matsuoka B. D., Zuppan P., Chan H. W., Eglen R. M. (1995) “The pharmacology and distribution of human 5-hydroxytryptamine2B (5-HT2B) receptor gene products: comparison with 5-HT2A and 5-HT2C receptors.” Br. J. Pharmacol. 115(4): 622-628; and Saucier C., Albert P. R. (1997) “Identification of an endogenous 5-hydroxytryptamine2A receptor in NIH-3T3 cells: agonist-induced down-regulation involves decreases in receptor RNA and number.” J. Neurochem. 68(5): 1998-2011. The test compounds were tested in duplicate at a single concentration of 1 μM and then at six concentrations to find the pKi values of the individual compounds.

[2] = target: T2, serotonin 5-HT2C receptor (Homo sapiens, UniProt P28335); experiment: Test B: binding to the serotonin 5-HT2C receptor; conditions: human recombinant cells (CHO-K1), six concentrations; read-out: (h)5-HT2c (pKi) (converted)
T2 construct: expressed in transfected cells; host or cells: CHO-K1
T2 sequence (P28335 33-458): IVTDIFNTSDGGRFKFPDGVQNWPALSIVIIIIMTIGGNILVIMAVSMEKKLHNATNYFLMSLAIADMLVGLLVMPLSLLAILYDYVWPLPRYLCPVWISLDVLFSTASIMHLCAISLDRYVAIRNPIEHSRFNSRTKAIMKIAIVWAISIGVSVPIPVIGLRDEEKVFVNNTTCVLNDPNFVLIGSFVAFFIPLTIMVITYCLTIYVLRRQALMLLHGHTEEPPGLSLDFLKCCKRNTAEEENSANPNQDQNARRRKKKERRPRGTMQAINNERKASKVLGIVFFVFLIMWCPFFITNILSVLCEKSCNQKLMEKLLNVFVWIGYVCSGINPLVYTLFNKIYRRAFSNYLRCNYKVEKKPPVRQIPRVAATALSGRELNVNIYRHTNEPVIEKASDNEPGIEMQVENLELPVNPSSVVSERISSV
Source text: as §1
Binding to the serotonin 5-HT2C receptor was effected using the standard methodology described in: Wolf W. A. and Schutz J. S. (1997) “The serotonin 5-HT2C receptor is a prominent serotonin receptor in basal ganglia: evidence from functional studies on serotonin-mediated phosphoinositide hydrolysis.” J. Neurochem. 69: 1449-1458. CHO-K1 recombinant cells for expression of the human enzyme were used as starting material, and SB242084 as reference compound. The test compounds were tested in duplicate at a single concentration of 1 μM and then at six concentrations to find the pKi values of the individual compounds.

[3] = target: T3, rat 5-HT2A serotonin receptor (Rattus norvegicus, UniProt P14842); experiment: biochemical
T3 sequence (P14842 whole entry): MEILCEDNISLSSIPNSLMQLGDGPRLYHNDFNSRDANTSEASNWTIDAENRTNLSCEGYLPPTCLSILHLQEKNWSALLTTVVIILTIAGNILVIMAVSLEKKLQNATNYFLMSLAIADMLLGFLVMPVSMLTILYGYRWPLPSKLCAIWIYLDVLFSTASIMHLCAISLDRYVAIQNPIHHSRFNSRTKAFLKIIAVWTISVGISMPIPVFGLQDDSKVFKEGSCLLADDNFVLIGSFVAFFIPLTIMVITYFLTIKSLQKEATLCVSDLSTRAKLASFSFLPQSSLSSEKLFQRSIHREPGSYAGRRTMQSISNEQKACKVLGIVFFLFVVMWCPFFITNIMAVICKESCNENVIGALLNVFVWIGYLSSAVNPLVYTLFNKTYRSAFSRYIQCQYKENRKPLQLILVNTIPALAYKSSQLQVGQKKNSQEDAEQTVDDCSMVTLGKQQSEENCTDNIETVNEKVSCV
Method: (§2) The non-specific binding was measured in the presence of 10 μM methysergide. The assay was conducted in Tris-HCl 50 mM buffer (pH 7.4 at 37° C.), with incubation for 2 hours at 37° C. The test compounds were dissolved in DMSO, then diluted in buffer (final DMSO concentration 0.01%) and plated on 96-well plates. Methysergide and/or ketanserin were used as reference compounds.
(§3) Binding is initiated by addition of 200 μl of homogenate (450 μg/ml protein content); after incubation, the membranes were filtered on glass-fibre filters (GF/B) (Unifilter, Packard) treated with 0.3% polyethyleneimine. Then the filters were washed with buffer solution and stove-dried for 30 minutes at 45° C. The scintillation liquid was added to each well, and 10 hours later the radioactivity was measured for 1 minute using a TopCount (Packard). The test compounds were tested in duplicate at 8 concentrations (from 10^-12 to 10^-5 M).
(§4) The IC50 values for each compound were calculated using non-linear regression analysis (GraphPad PRISM software) and the inhibition constants Ki were determined using the equation described by Cheng Y. and Prussof W. H. (1973) “Relationship between the inhibition constant (Ki) and the concentration of inhibitor which causes 50 percent inhibition (150) of an enzyme reaction.” Biochem. Pharmacol. 22: 3099-3108.

[4] = target: T3, rat 5-HT2A serotonin receptor
Method: as §2, §3, §4

melting point	pKi [3]	Compound	other results
162 to 165 °C		Cn1nc2ccccc2c1C(=O)NC1CCN(CCCc2ccc(F)cc2)CC1 [Compound 22, N-{1-[3-(4-fluorophenyl)propyl]piperidin-4-yl}-2-methyl-2H-indazole-3-carboxamide]	
	7.32	Cn1nc2ccccc2c1C(=O)NCC1CCN(CCc2ccc(O)cc2)CC1 [Compound 3, N3-({1-[2-(4-Hydroxyphenyl)ethyl]hexahydro-4-pyridinyl}methyl-2-methyl-2H-3-indazolecarboxamide hydrochloride hydrate]	Ki [1]: 2.09 nM; Ki [2]: 148 nM
218 to 219 °C (dec.)	7.32	COc1ccc2nn(C)c(C(=O)NCC3CCN(CCc4ccc(O)cc4)CC3)c2c1 [Compound 4, N-({1-[2-(4-Hydroxyphenyl)ethyl]piperidin-4-yl}methyl)-5-methoxy-2-methyl-2H-indazole-3-carboxamide]	
224 to 228 °C		Cl.Cn1nc2ccccc2c1C(=O)NC1CCN(CCc2ccc(F)cc2)CC1	
193 to 194 °C	7.04	COCCn1nc2ccccc2c1C(=O)NCC1CCN(CCc2ccc(F)cc2)CC1.Cl [Compound 7, N-({1-[2-(4-Fluorophenyl)ethyl]piperidin-4-yl}methyl)-2-(2-methoxyethyl)-2H-indazole-3-carboxamide hydrochloride]	
174 to 176 °C		Cn1nc2ccccc2c1C(=O)NCC1CCN(CCc2ccc(C(F)(F)F)cc2)CC1 [Compound 17, 2-methyl-N-[(1-{2-[4-(trifluoromethyl)phenyl]ethyl}piperidin-4-yl)methyl]-2H-indazole-3-carboxamide]	
208 to 209 °C	7.80	Cl.Cn1nc2ccccc2c1C(=O)NCC1CCN(CCc2ccc(F)cc2)CC1 [Compound 8, N-({1-[2-(4-Fluorophenyl)ethyl]piperidin-4-yl}methyl)-2-methyl-2H-indazole-3-carboxamide hydrochloride]	Ki [1]: 1.62 nM; Ki [2]: 53.7 nM
80 °C (dec.)	5.80	COc1ccc(CCN2CCC(CNC(=O)c3c4ccccc4nn3C)CC2)cc1.Cl [Compound 5, N-({1-[2-(4-Methoxyphenyl)ethyl]piperidin-4-yl}methyl)-2-methyl-2H-indazole-3-carboxamide hydrochloride]	
122 to 126 °C		Cn1nc2ccccc2c1C(=O)NCC1CCN(CCc2ccc(F)cc2F)CC1 [Compound 23, N-({1-[2-(2,4-difluorophenyl)ethyl]piperidin-4-yl}methyl)-2-methyl-2H-indazole-3-carboxamide]	

Continued, compound first:

Compound	melting point	pKi [3]	other results
Cn1nc2ccccc2c1C(=O)NC1CCN(CCc2ccccc2F)CC1 [Compound 18, N-{1-[2-(2-fluorophenyl)ethyl)piperidin-4-yl}-2-methyl-2H-indazole-3-carboxamide]	164 to 166 °C		
Cn1nc2ccccc2c1C(=O)N1CCC(CNCCc2ccc(F)cc2F)CC1 [Compound 9, 2-(2,4-Difluorophenyl)-N-({1-[(2-methyl-2H-indazole-3-yl)carbonyl]piperidin-4-yl}methyl)ethanamine hydrochloride]		6.20	
Cl.Cn1nc2ccccc2c1C(=O)N1CCC(CNCCc2ccc(F)cc2)CC1 [Compound 10, 2-(4-Fluorophenyl)-N-({1-[(2-methyl-2H-indazol-3-yl)carbonyl)piperidin-4-yl}methyl]ethanamine hydrochloride]	198 to 199 °C	6.58	
N,2-Dimethyl-N-{[1-(2-phenylethyl)piperidin-4-yl]methyl}-2H-indazole-3-carboxamide hydrochloride hemihydrate [Compound 2]			pKi [4]: 6.09
Cn1nc2ccccc2c1C(=O)NCCCN1CCC(c2ccc(F)cc2)CC1 [Compound 20, N-{3-[4-(4-fluorophenyl)piperidin-1-yl]propyl}-2-methyl-2H-indazole-3-carboxamide]	136 to 140 °C		
Cn1nc2ccccc2c1C(=O)NC1CCN(CCc2ccc(F)cc2)C1 (stereo not shown) [Compound 15, N-{1-[2-(4-fluorophenyl)ethyl]pyrrolidin-3-yl}-2-methyl-2H-indazole-3-carboxamide]	117 to 119 °C		
Cn1nc2ccccc2c1C(=O)NC1CCN(Cc2ccccc2)CC1 [Compound 21, N-(1-benzylpiperidin-4-yl)-2-methyl-2H-indazole-3-carboxamide]	167 to 169 °C		
Cn1nc2ccccc2c1C(=O)NCC1CCN(CCc2ccccc2)CC1 [Compound 1, 2-Methyl-N-{[1-(2-phenylethyl)piperidin-4-yl]methyl}-2H-indazole-3-carboxamide hydrochloride hydrate]		7.49	Ki [1]: 2.63 nM; Ki [2]: 89.1 nM
